Reference: ChEMBL document CHEMBL5226389, “Isolation of the Anti-Inflammatory Agent Myceliostatin from a Methionine-Enriched Culture of Myceliophthora thermophila ATCC 42464” (J Nat Prod, 2023)
The source made the active and inactive calls. The rule behind the calls is not given here.

Key:
RAW264.7 [1] = experiment: Cytotoxicity against mouse RAW264.7 cells assessed as reduction in cell viability at 3 microg/ml incubated for 24 hrs by MTT assay; type: toxicity, cell-based; details: raw264.7, 24 h, dose 3 µg/ml
RAW264.7 [2] = experiment: Inhibition of LPS-induced NO production in mouse RAW264.7 cells at 0.3 to 3 microg/ml incubated for 24 hrs by griess reagent based microplate reader analysis; type: functional, cell-based; details: dose 0.3-3 µg/ml
RAW264.7 [3] = experiment: Antiinflammatory activity in LPS-stimulated mouse RAW264.7 cells assessed as inhibition of IL-6 level incubated for 24 hrs by RT-PCR analysis; type: functional, cell-based
RAW264.7 [4] = experiment: Antiinflammatory activity in LPS-stimulated mouse RAW264.7 cells assessed as inhibition of IL-1beta level incubated for 24 hrs by RT-PCR analysis; type: functional, cell-based
RAW264.7 [5] = experiment: Cytotoxicity against mouse RAW264.7 cells assessed as reduction in cell viability at 10 microg/ml incubated for 4 hrs by MTT assay; type: toxicity, cell-based; details: raw264.7, 4 h, dose 10 µg/ml
RAW264.7 [6] = experiment: Antiinflammatory activity in mouse RAW264.7 cells assessed as inhibition of LPS-induced NFkB p65 activation at 3 to 10 microg/ml for 2 hrs followed by LPS stimulation for 2 hrs; type: functional, cell-based; details: dose 3-10 µg/ml, time 4.0 hrs
RAW264.7 [7] = experiment: Inhibition of LPS-induced ROS production in mouse RAW264.7 cells at 3 to 10 microg/ml preincubated for 1 hr followed by LPS stimulation and measured after 24 hrs by DCFH-DA staining based fluorescence analysis; type: functional, cell-based; details: dose 3-10 µg/ml, time 25.0 hrs

Structure (SMILES)	Activity (RAW264.7 [1])	inhibition (RAW264.7 [2])	Activity (RAW264.7 [3])	Activity (RAW264.7 [4])	Activity (RAW264.7 [5])	Activity (RAW264.7 [6])	inhibition (RAW264.7 [7])
C/C=C(\C)[C@H]1C(C)=C[C@@]2(C)C[C@@H](C)CC[C@@H]2[C@H]1C(=O)C1=C(SC)[C@](O)(CC(C)C)NC1=O	Non-Toxic	Active	–	–	–	–	–
C/C=C(\C)[C@H]1C(C)=C[C@@]2(C)C[C@@H](C)CC[C@@H]2[C@H]1C(=O)C1=C(SC)[C@@](O)(CC(C)C)NC1=O	Non-Toxic	Active	Active	Active	Non-Toxic	Active	Active
